From ChEMBL document CHEMBL3872241, “Synthesis and bioactivity evaluation of 2,3-diaryl acrylonitrile derivatives as potential anticancer agents” (Bioorg Med Chem Lett, 2017)
pIC50: −log10 of the molar value. Calls of active or inactive are those of the source. The calls are words filed in the database; no cut-off is given here.

Legend:
[1] = Cell cycle arrest in human HeLa cells assessed as accumulation at G0/G1 phase at 50 uM after 24 hrs by propidium iodide-based FACS analysis (reference value: 61.71%); type: functional
[2] = Cell cycle arrest in human HeLa cells assessed as accumulation at S phase at 50 uM after 24 hrs by propidium iodide-based FACS analysis (reference value: 31.26%); type: functional
[3] = Cytotoxicity against human Bel7402 cells assessed as cell growth inhibition after 48 hrs by MTT assay; type: functional, cell-based; conditions: Bel-7402, 48 h
[4] = Cell cycle arrest in human HeLa cells assessed as accumulation at G2/M phase at 50 uM after 24 hrs by propidium iodide-based FACS analysis (reference value: 7.12%); type: functional
[5] = Cytotoxicity against human HCT116 cells assessed as cell growth inhibition after 48 hrs by MTT assay; type: functional, cell-based; conditions: HCT-116, 48 h
[6] = test system: HCT-116; test: Cytotoxicity against human HCT116 cells assessed as cell growth inhibition at 100 uM after 48 hrs by MTT assay; type: functional
[7] = test system: Bel-7402; test: Cytotoxicity against human Bel7402 cells assessed as cell growth inhibition at 100 uM after 48 hrs by MTT assay; type: functional
[8] = Cytotoxicity against human HeLa cells assessed as cell growth inhibition after 48 hrs by MTT assay; type: functional, cell-based
[9] = Cytotoxicity against human Caco2 cells assessed as cell growth inhibition at 0.3 uM by SRB assay; type: functional; conditions: Caco-2, read-out: GI
[10] = test system: Bel-7402; test: Selectivity index, ratio of IC50 for human L02 cells to IC50 for human Bel7402 cells; type: functional
[11] = Cell cycle arrest in human HeLa cells assessed as accumulation at G2/M phase at 0.1 to 1 uM after 24 hrs by propidium iodide-based FACS analysis (reference value: 7.12%); type: functional
[12] = Cell cycle arrest in human HeLa cells assessed as accumulation at S phase at 0.1 to 1 uM after 24 hrs by propidium iodide-based FACS analysis (reference value: 31.26%); type: functional
[13] = Cell cycle arrest in human HeLa cells assessed as accumulation at G0/G1 phase at 0.1 to 1 uM after 24 hrs by propidium iodide-based FACS analysis (reference value: 61.71%); type: functional
[14] = test system: HeLa; test: Antimigratory activity in human HeLa cells at 1 uM after 24 hrs by wound-scratch assay; type: functional, cell-based
[15] = test system: HeLa; test: Selectivity index, ratio of IC50 for human L02 cells to IC50 for human HeLa cells; type: functional
[16] = Cytotoxicity against human L02 cells assessed as cell growth inhibition after 48 hrs by MTT assay; type: toxicity, cell-based
[17] = test system: HCT-116; test: Selectivity index, ratio of IC50 for human L02 cells to IC50 for human HCT116 cells; type: functional
[18] = test system: HeLa; test: Induction of apoptosis in human HeLa cells assessed as increase in early apoptotic cells at 0.1 uM after 24 hrs by Annexin V-FITC/propidium iodide based FACS analysis; type: functional, cell-based

Compound | Activity [1] [%] | Activity [2] [%] | pIC50 [3] | Activity [4] [%] | pIC50 [5] | growth inhibition (GI) [6] | growth inhibition (GI) [7] | pIC50 [8] | inhibition of growth at 0.3 µM [9] [%] | Ratio IC50 [10] | Activity [11] [%] | Activity [12] [%] | Activity [13] [%] | Activity [14] | Ratio IC50 [15] | IC50 at 48 h [16] [µM] | Ratio IC50 [17] | Activity [18]
Oc1ccc(/C=C/c2cc(O)cc(O)c2)cc1 [RESVERATROL] | 72 | 21.8 | 3.86 | 6.29 | 4.20 | Active | Active | 3.92 | – | – | – | – | – | – | – | – | – | –
COc1ccc(/C=C\c2cc(OC)cc(OC)c2)cc1 [8Z-3,4',5-TRIMETHOXYSTILBENE] | – | – | – | – | – | – | – | – | 80 | – | – | – | – | – | – | – | – | –
CC(=O)O[C@H]1C(=O)[C@@]2(C)[C@H]([C@H](OC(=O)c3ccccc3)[C@]3(O)C[C@H](OC(=O)[C@H](O)[C@@H](NC(=O)c4ccccc4)c4ccccc4)C(C)=C1C3(C)C)[C@]1(OC(C)=O)CO[C@@H]1C[C@@H]2O [PACLITAXEL] | – | – | > 7.00 | – | > 7.00 | – | – | 4.89 | – | >1000 | 70.6 | 28.5 | 1.03 | Active | >7.72 | > 100 | >1000 | Active
